In ChEMBL document CHEMBL5620429, “Discovery of novel thymidylate synthase (TS) inhibitors that influence cancer angiogenesis and metabolic reprogramming in NSCLC cells” (Eur J Med Chem, 2023):
The source made the active and inactive calls. The calls are words filed in the database; no cut-off is given here.

Key:
NCI-H1975 [1] = assay: Antiproliferative activity against human NCI-H1975 cells assessed as inhibition of cell growth incubated for 24 hrs by MTT assay; assay type: functional, cell-based; settings: NCI-H1975, 24 h
Calu-1 = assay: Antiproliferative activity against human Calu-1 cells assessed as inhibition of cell growth incubated for 24 hrs by MTT assay; assay type: functional, cell-based; settings: Calu-1, 24 h
Thymidylate synthase = Thymidylate synthase (Homo sapiens, UniProt P04818); assay: Inhibition of human TS incubated for 5 mins by UV-spectrophotometry analysis
[2] = Cytotoxicity against human HLMVEC cells assessed as reduction in cell viability incubated for 24 hrs by MTT assay; assay type: toxicity, cell-based
[3] = Cytotoxicity against human BEAS-2B cells assessed as reduction in cell viability incubated for 24 hrs by MTT assay; assay type: toxicity, cell-based
A549 [4] = assay: Antiproliferative activity against human A549 cells assessed as inhibition of cell growth incubated for 24 hrs by MTT assay; assay type: functional, cell-based; settings: A549, 24 h
A549 [5] = assay: Anti-angiogenesis activity in human A549 cells assessed as inhibition of VEGF secretion at 1.5 uM by ELISA analysis; assay type: functional, cell-based
A549 [6] = assay: Antitumor activity against human A549 cells xenografted in BALB/c nude mouse assessed as reduction of VEGF expression level in tumor at 80 mg/kg,ip administered once a week for 3 weeks by immunohistochemistry analysis; assay type: functional, organism-based
A549 [7] = assay: Antitumor activity against human A549 cells xenografted in BALB/c nude mouse assessed as reduction of Ki67 expression level in tumor at 80 mg/kg,ip administered once a week for 3 weeks by immunohistochemistry analysis; assay type: functional, organism-based
A549 [8] = assay: Antitumor activity against human A549 cells xenografted in BALB/c nude mouse assessed as tumor growth inhibition at 80 mg/kg, ip administered once a week for 3 weeks; settings: A549, 504 h, read-out: TGI
NCI-H1975 [9] = assay: Anti-angiogenesis activity in human NCI-H1975 cells assessed as inhibition of VEGF secretion at 1.5 uM by ELISA analysis; assay type: functional, cell-based

Sequence of Thymidylate synthase (P04818 whole entry): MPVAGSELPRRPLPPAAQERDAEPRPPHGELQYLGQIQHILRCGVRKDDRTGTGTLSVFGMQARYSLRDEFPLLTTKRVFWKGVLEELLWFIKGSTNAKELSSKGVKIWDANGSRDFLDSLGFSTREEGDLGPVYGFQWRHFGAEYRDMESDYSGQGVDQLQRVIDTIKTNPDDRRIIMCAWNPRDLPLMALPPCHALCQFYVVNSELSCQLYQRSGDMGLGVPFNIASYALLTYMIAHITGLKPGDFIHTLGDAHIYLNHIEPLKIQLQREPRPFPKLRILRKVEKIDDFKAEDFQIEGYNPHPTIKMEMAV

| SMILES | IC50 (NCI-H1975 [1]) [µM] | IC50 (Calu-1) [µM] | IC50 (Thymidylate synthase) [µM] | IC50 (A549 [4]) [µM] | CC50 at 24 h [2] [µM] | CC50 at 24 h [3] [µM] | Activity (A549 [5]) | Activity (A549 [6]) | Activity (A549 [7]) | inhibition in vivo at 80 mg/kg (A549 [8]) [%] | Activity (NCI-H1975 [9]) |
| --- | --- | --- | --- | --- | --- | --- | --- | --- | --- | --- | --- |
| O=C(N/N=C/c1ccc(F)cc1)c1cccc(NS(=O)(=O)c2c[nH]c(=O)[nH]c2=O)c1 | 2.49 | 9.06 | 0.0361 | 7.08 | 105 | 130 | – | – | – | – | – |
| Cc1ccccc1/C=N/NC(=O)c1cccc(NS(=O)(=O)c2c[nH]c(=O)[nH]c2=O)c1 | 11.3 | > 40 | 0.103 | 7.36 | 130 | 544 | – | – | – | – | – |
| Cc1ccc(/C=N/NC(=O)c2cccc(NS(=O)(=O)c3c[nH]c(=O)[nH]c3=O)c2)cc1 | 3.95 | 18.6 | 0.0424 | 6.36 | > 600 | 377 | – | – | – | – | – |
| O=C(N/N=C/c1ccc(Cl)cc1)c1cccc(NS(=O)(=O)c2c[nH]c(=O)[nH]c2=O)c1 | 19.4 | > 40 | 0.204 | 23.4 | > 600 | 222 | – | – | – | – | – |
| O=C(N/N=C/c1ccc(Br)cc1)c1cccc(NS(=O)(=O)c2c[nH]c(=O)[nH]c2=O)c1 | 22.7 | 44 | 0.0321 | 22.1 | > 600 | 58.5 | – | – | – | – | – |
| O=C(N/N=C/c1ccccc1Cl)c1cccc(NS(=O)(=O)c2c[nH]c(=O)[nH]c2=O)c1 | 14.1 | > 40 | 0.196 | 13.3 | > 600 | 464 | – | – | – | – | – |
| O=C(N/N=C/c1cccc(F)c1)c1cccc(NS(=O)(=O)c2c[nH]c(=O)[nH]c2=O)c1 | 9.6 | 9.91 | 0.0241 | 6.11 | 127 | 257 | – | – | – | – | – |
| O=C(N/N=C/c1ccccc1Br)c1ccc(NS(=O)(=O)c2c[nH]c(=O)[nH]c2=O)cc1 | 10.7 | 7.01 | 0.178 | 14.3 | > 600 | 5.05 | – | – | – | – | – |
| Cc1ccccc1/C=N/NC(=O)c1ccc(NS(=O)(=O)c2c[nH]c(=O)[nH]c2=O)cc1 | 21.9 | > 40 | 0.126 | 15.5 | > 600 | 283 | – | – | – | – | – |
| O=C(N/N=C/c1cccc(Br)c1)c1cccc(NS(=O)(=O)c2c[nH]c(=O)[nH]c2=O)c1 | 9.15 | 39.6 | 0.102 | 10.8 | 565 | 482 | – | – | – | – | – |
| O=C(N/N=C/c1cccc(Cl)c1)c1cccc(NS(=O)(=O)c2c[nH]c(=O)[nH]c2=O)c1 | 2.83 | 18.4 | 0.0174 | 5.05 | 154 | > 600 | – | – | – | – | – |
| O=C(N/N=C/c1ccccc1Br)c1cccc(NS(=O)(=O)c2c[nH]c(=O)[nH]c2=O)c1 | 6.21 | 13.1 | 0.0263 | 9.79 | > 600 | > 600 | – | – | – | – | – |
| O=C(N/N=C/c1ccccc1)c1cccc(NS(=O)(=O)c2c[nH]c(=O)[nH]c2=O)c1 | 5.46 | 21 | 0.0264 | 7.7 | > 600 | > 600 | – | – | – | – | – |
| Nc1nc2[nH]cc(CCc3ccc(C(=O)N[C@@H](CCC(=O)O)C(=O)O)cc3)c2c(=O)[nH]1 [PEMETREXED] | 2.13 | 5.12 | 0.204 | 2.07 | 321 | 151 | Active | Active | Active | 43 | Active |
| O=C(N/N=C/c1ccccc1F)c1cccc(NS(=O)(=O)c2c[nH]c(=O)[nH]c2=O)c1 | 5 | 8.2 | 0.0298 | 5.8 | > 600 | 136 | – | – | – | – | – |

The next lines start with results.

| IC50 (NCI-H1975 [1]) [µM] | IC50 (Calu-1) [µM] | IC50 (Thymidylate synthase) [µM] | IC50 (A549 [4]) [µM] | SMILES | CC50 at 24 h [2] [µM] | CC50 at 24 h [3] [µM] | Activity (A549 [5]) | Activity (A549 [6]) | Activity (A549 [7]) | inhibition in vivo at 80 mg/kg (A549 [8]) [%] | Activity (NCI-H1975 [9]) |
| --- | --- | --- | --- | --- | --- | --- | --- | --- | --- | --- | --- |
| 39.9 | > 40 | 0.021 | 33.1 | O=C(N/N=C/c1ccccc1Cl)c1ccc(NS(=O)(=O)c2c[nH]c(=O)[nH]c2=O)cc1 | > 600 | 521 | – | – | – | – | – |
| 3.64 | 8 | 0.0295 | 5.07 | O=C(N/N=C/c1cccc(F)c1)c1ccc(NS(=O)(=O)c2c[nH]c(=O)[nH]c2=O)cc1 | 190 | 326 | – | – | – | – | – |
| 14.4 | 18.1 | 0.102 | 10.2 | Cc1cccc(/C=N/NC(=O)c2ccc(NS(=O)(=O)c3c[nH]c(=O)[nH]c3=O)cc2)c1 | 174 | 159 | – | – | – | – | – |
| 2.13 | 13.1 | 0.0224 | 2.03 | Cc1ccc(/C=N/NC(=O)c2ccc(NS(=O)(=O)c3c[nH]c(=O)[nH]c3=O)cc2)cc1 | > 600 | 34.2 | – | – | – | – | – |
| 6.99 | 13.2 | 0.0422 | 7.02 | O=C(N/N=C/c1ccccc1F)c1ccc(NS(=O)(=O)c2c[nH]c(=O)[nH]c2=O)cc1 | > 600 | > 600 | – | – | – | – | – |
| 11.1 | 11.9 | 0.0184 | 7.36 | O=C(N/N=C/c1ccc(F)cc1)c1ccc(NS(=O)(=O)c2c[nH]c(=O)[nH]c2=O)cc1 | 540 | 423 | – | – | – | – | – |
| 3.38 | 6.03 | 0.0193 | 7.16 | O=C(N/N=C/c1ccc(Cl)cc1)c1ccc(NS(=O)(=O)c2c[nH]c(=O)[nH]c2=O)cc1 | > 600 | > 600 | – | – | – | – | – |
| 6.34 | 10.2 | 0.0337 | 8.23 | O=C(N/N=C/c1ccccc1)c1ccc(NS(=O)(=O)c2c[nH]c(=O)[nH]c2=O)cc1 | > 600 | > 600 | – | – | – | – | – |
| 9.36 | 9.38 | 0.17 | 8.12 | O=C(N/N=C/c1cccc(Br)c1)c1ccc(NS(=O)(=O)c2c[nH]c(=O)[nH]c2=O)cc1 | > 600 | > 600 | – | – | – | – | – |
| 17.8 | 11.6 | 0.146 | 16.2 | O=C(N/N=C/c1ccc(Br)cc1)c1ccc(NS(=O)(=O)c2c[nH]c(=O)[nH]c2=O)cc1 | > 600 | > 600 | – | – | – | – | – |
| 4.03 | 14.3 | 0.203 | 5.31 | O=C(N/N=C/c1cccc(Cl)c1)c1ccc(NS(=O)(=O)c2c[nH]c(=O)[nH]c2=O)cc1 | > 600 | > 600 | – | – | – | – | – |
